# According to patent US8664213B2, “Spiro bicyclic diamine derivatives as HIV attachment inhibitors” (priority 2011, dated 2014):
# pEC50: −log10 of the molar value. Read-outs that look alike come from different tables or passages of the source.
# Tested on: HIV-1 LAI
# Assay: Single-round infectious luciferase reporter virus (HIV-1 LAI envelope) infection of MT2 cells
# Assay type: cell-based
# Details: Human immunodeficiency virus 1, MT2, 72 h
# From the text: • Virus Production— • Human embryonic Kidney cell line, 293T (HEK 293T), was propagated in Dulbecco's Modified Eagle Medium (Invitrogen, Carlsbad, Calif.) containing 10% fetal Bovine serum (FBS, Sigma, St. Louis, Mo.). The human T-cell leukemia cell MT2 (AIDS Research and Reference Reagent Program, Cat. 237) was propagated in RPMI 1640 (Invitrogen, Carlsbad, Calif.) containing 10% fetal bovine serum (FBS, Hyclone, Logan, Utah) • Virus Infection— • Single-round infectious reporter virus was produced by co-transfecting HEK 293T cells with plasmide expressing the HIV-1 LAI envelope along with a plasmid containing an HIV-1 LAI proviral cDNA with the envelope gene replaced by a firefly luciferase reporter gene (Chen et al, Ref 41). Transfections were performed using lipofectAMINE PLUS reagent as described by the manufacturer (Invitrogen, Carlsbad, Calif.).
# • 1. MT2 cells were plated in black, 384 well plates at a cell density of 5×10^3 cells per well in 25 μl RPMI 1640 containing 10% FBS. • 2. Compound (diluted in dimethylsulfoxide and growth medium) was added to cells at 12.5 μl/well, so that the final assay concentration would be ≦50 nM. • 3. 12.5 μl of single-round infectious reporter virus in Dulbecco's Modified Eagle Medium was added to the plated cells and compound at an approximate multiplicity of infection (MOI) of 0.01, resulting in a final volume of 50 μl per well. • 4. Virus-infected cells were incubated at 37 degrees Celsius, in a CO2 incubator, and harvested 72 h after infection. • 5. Viral infection was monitored by measuring luciferase expression in the infected cells using a luciferase reporter gene assay kit (Steady-Glo, Promega, Madison, Wis.) as described by the manufacturer. Luciferase activity was then quantified by measuring luminescence using an EnVision Multilabel Plate Readers (PerkinElmer, Waltham, Mass.). • 6. The percent inhibition for each compound was calculated by quantifying the level of luciferase expression in cells infected in the presence of each compound as a percentage of that observed for cells infected in the absence of compound and subtracting such a determined value from 100. • 7. An EC50 provides a method for comparing the antiviral potency of the compounds of this disclosure. The effective concentration for fifty percent inhibition (EC50) was calculated with the Microsoft Excel Xlfit curve fitting software. For each compound, curves were generated from percent inhibition calculated at 10 different concentrations by using a four parameter logistic model (model 205). Table 1 is the key for the data in Table 2.
# [1] = read-out: EC50 Group from Table 1
Structure (SMILES),pEC50,pEC50 [1]
"O=C(C(=O)N1CCC2(CCN(c3nnnn3-c3ccccc3)C2)C1)c1c[nH]c2c(-n3ccnn3)ncc(F)c12 (centres unmarked) [Compound 1001, 1-(4-fluoro-7-(1H-1,2,3-triazol-1-yl)-1H-pyrrolo[2,3-c]pyridin-3-yl)-2-(7-(1-phenyl-1H-tetrazol-5-yl)-2,7-diazaspiro[4.4]nonan-2-yl)ethane-1,2-dione]",8.25,> 6.30
"COc1cnc(-n2cnc(C)n2)c2[nH]cc(C(=O)C(=O)N3CCC4(CCN(c5nnnn5-c5ccccc5)C4)C3)c12 (centres unmarked) [Compound 1002, 1-(4-methoxy-7-(3-methyl-1H-1,2,4-triazol-1-yl)-1H-pyrrolo[2,3-c]pyridin-3-yl)-2-(7-(1-phenyl-1H-tetrazol-5-yl)-2,7-diazaspiro[4.4]nonan-2-yl)ethane-1,2-dione]",,> 6.30
COc1cnc(-n2cnc(C)n2)c2[nH]cc(C(=O)C(=O)N3CCC4(CCN(Cc5ccccc5)C4)C3)c12 (centres unmarked) [Compound 2002],,< 6.30
O=C(C(=O)N1CCC2(CCN(C(=O)c3ccccc3)C2)C1)c1c[nH]c2c(-n3ccnn3)ncc(F)c12 (centres unmarked) [Compound 2003],,< 6.30
COc1cnc(-n2cnc(C)n2)c2[nH]cc(C(=O)C(=O)N3CCC4(CCN(C(=O)c5ccccc5)C4)C3)c12 (centres unmarked) [Compound 2004],,< 6.30
"COc1cnc(-n2cnc(C)n2)c2[nH]cc(C(=O)C(=O)N3CC4(C3)CN(c3nnnn3-c3ccccc3)C4)c12 [Compound 4001, 1-(4-methoxy-7-(3-methyl-1H-1,2,4-triazol-1-yl)-1H-pyrrolo[2,3-c]pyridin-3-yl)-2-(6-(1-phenyl-1H-tetrazol-5-yl)-2,6-diazaspiro[3.3]heptan-2-yl)ethane-1,2-dione]",6.66,> 6.30
